Measured values taken from US20160000126A1, “MODULATION OF SALTY TASTE […] ALTERING THE FUNCTION OF BITTER- OR PKD2L1-[…] RECEPTOR CELLS” (THE TRUSTEES OF COLUMBIA UNIVERSITY IN THE CITY OF NEW YORK, priority 2013, published 2016).

How the values were obtained:
[1] = test system: bitter taste receptor cells / high-salt sensing pathway; test: chorda tympani nerve recordings before and after AITC application to the tongue; assay type: in vivo, mice
Protocol: Lingual stimulation and recording procedures were performed as previously described (Chandrashekar et al. (2010); Nelson et al. (2002)). Data analysis used the integrated response during the 5 seconds of tastant stimulation.
Responses to 20 mM citric acid (FIGS. 2 and 3), 60 mM NaCl (FIG. 8, 12, and 13), or 250 mM KCl before AITC application (FIG. 13) were used to normalize responses for each experimental series. For FIG. 7, data were normalized to 20 mM citric acid and then scaled to WT responses before AITC application. Data were analyzed for statistical significance using an unpaired, one-tailed Student's t-test and 95% confidence limits.
To compute the amiloride-sensitive salt component, the stimulation regime involved sequential applications of NaCl solutions first without, and then with, amiloride (5 seconds pre- or pre- and post-incubation and co-application with NaCl solution) in the same experimental series. The amiloride-insensitive component was defined as the response in the presence of amiloride. The fraction of the response inhibited by amiloride was defined as the amiloride-sensitive component (amiloride-sensitive component=response without amiloride−response with amiloride).
For pharmacological inhibition studies using allyl isothiocyanate (AITC), responses to a series of taste stimuli were measured. Then 3 mM AITC (Aldrich, 377430-5G) was applied to the tongue at a rate of 6 ml/minute for 5 minutes. The tongue was washed with artificial saliva for 1 minute and nerve responses to the same series of taste stimuli measured. Responses before and after AITC were compared for each animal. To minimize effects of recovery, responses after AITC were recorded within 15 minutes of AITC treatment.

[2] = test system: tongue carbonic anhydrases; test: chorda tympani nerve recordings before and after DZA treatment of the tongue; assay type: in vivo, mice
[3] = test system: T2R32-Sapphire positive taste cells; test: calcium imaging of fungiform taste receptor cells; assay type: cell-based; details: T2R32-Sapphire mice; for response of T2R32-Sapphire positive taste cells to stimulus: 500 mM KCl (high-salt), 100 mM citric acid (sour)
Protocol: Calcium imaging from fungiform TRCs was performed as previously described (Chandrashekar et al. (2010); Oka et al. (2006)).
Fungiform TRCs were loaded in vivo with Calcium Green-1 dextran 3 kD (Invitrogen) by electroporating individual taste buds. Tongues were removed 24-36 hours after dye loading, and the epithelium was peeled enzymatically and placed in a custom recording chamber. The apical surface of the preparation was bathed in a constant flow of artificial saliva, and taste stimuli were delivered by focal application to individual taste buds. Tastants were applied for 1 second, with a minimum of 10 seconds of artificial saliva between stimuli. Changes in [Ca2+]i were monitored using a 5-Live confocal microscope (Zeiss) equipped with a ×40 C-Apochromat 1.20 W objective; images were captured at 4 Hz, and ΔF/F from individual TRCs analyzed and pseudo-colored as described previously (Chandrashekar et al. (2010)).
To identify sapphire positive cells in T2R32-Sapphire mice, 405-nm excitation laser to separate sapphire and Calcium Green-1 fluorescence was used. Mean cellular fluorescence intensity (F) was calculated for the individual TRCs and basal fluorescence (Fo) was assigned to each cell by averaging fluorescence intensity over 3 seconds just before tastant application. ΔF/F was calculated as [F−Fo]/Fo; taste cells were considered responders when ΔF/F exceeded 3 standard deviations above Fo within 5 seconds of tastant application.

CA4 = CA4 (Mus musculus, UniProt Q64444); details: TRPM5-KO mice; before and after addition of 30 mM KHCO3 (pH7.4)
[4] = control and T2R-PLC rescue animals, AITC treatment

CA4, sequence (Q64444 18-277): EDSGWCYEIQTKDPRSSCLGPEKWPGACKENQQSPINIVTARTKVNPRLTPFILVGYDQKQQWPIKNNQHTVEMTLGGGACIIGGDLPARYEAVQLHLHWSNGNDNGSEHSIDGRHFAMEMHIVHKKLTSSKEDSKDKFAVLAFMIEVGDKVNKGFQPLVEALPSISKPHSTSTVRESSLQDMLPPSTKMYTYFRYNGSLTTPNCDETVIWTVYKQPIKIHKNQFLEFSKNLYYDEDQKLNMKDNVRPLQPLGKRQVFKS

In the case of `C=CCN=C=S` [AITC, allyl isothiocyanate], the “chorda tympani responses to high concentration of bitter tastant cycloheximide” value ([1]; 1 mM cycloheximide, 1 and 30 minutes after AITC treatment) is reported as “strongly suppresses”, the “chorda tympani responses to other bitter tastants” value ([1]; 10 mM denatonium and 10 mM quinine, after AITC treatment) is reported as “suppressed” and the “chorda tympani response to sour taste” value ([1]; 20 mM citric acid, after AITC treatment) is reported as “remained unimpaired”. The “taste response evoked by AITC itself” value ([1]; 5 minutes exposure of the tongue to 3 mM AITC) was “minimal taste response”, the “fraction of high-salt neural responses eliminated” value ([1]; AITC treatment, FIG. 7) was “about 50%” and the “remaining high-salt (KCl) responses in PKD2L1-TeNT mice” value ([1]; PKD2L1-TeNT mice, further treatment with AITC) was “effectively abolished”. The “bitter and high-salt taste responses in TRPA1-KO mice” value ([1]; TRPA1-KO mice, with and without AITC) was “robust AITC-mediated suppression”, the “nerve responses to high salt in TRPM5 and PLCβ2 knockout mice” value ([1]; TRPM5-KO and PLCβ2-KO mice, before and after AITC) was “no longer sensitive” and the “chorda tympani responses to 0.1 mM cycloheximide” value [1, 4] was “almost completely suppressed”. For the same molecule, the “chorda tympani responses to 500 mM KCl and 500 mM NaCl in the presence of 10 μM amiloride” value [1, 4] was “reduced by half”, the “chorda tympani bitter responses” value ([1]; wild type mice, 0.1 mM cycloheximide, after 3 mM AITC) was “completely inhibited” and the “chorda tympani responses to low salt” value ([1]; wild type mice, 60 mM NaCl, after 3 mM AITC) was “did not affect”. The “chorda tympani responses to high-salt” value ([1]; wild type mice, 250 or 500 mM NaCl + amiloride and KCl, after 3 mM AITC for 5 minutes) was “significantly suppressed”, the “chorda tympani responses to KCl (selectively activates the high-salt pathway)” value ([1]; wild type mice, after 3 mM AITC) was “Identical suppression” and the “chorda tympani responses to other taste qualities” value ([1]; wild type mice, sour, sweet, umami tastants, after 3 mM AITC) was “did not affect”.

`CCN[C@H]1C[C@H](C)S(=O)(=O)c2sc(S(N)(=O)=O)cc21` [DZA, dorzolamide] was tested, and the “taste responses from PKD2L1-TeNT mice” value ([2]; PKD2L1-TeNT mice, various salts, 0.5% w/v DZA) was “completely insensitive”, the “sour and low salt taste responses” value ([2]; TRPM5-KO mice, 20 mM citric acid, 60 mM NaCl, 0.5% w/v DZA) was “insensitive” and the “CO2 chorda tympani responses” value ([2]; TRPM5-KO mice, 0.5% w/v DZA) was “affected”. The “high-salt induced chorda tympani responses from sour taste cells” value ([2]; TRPM5-KO mice, 0.5% w/v DZA for 5 minutes) was “reduced”.

In the case of `[Cl-].[K+]` [KCl, potassium chloride], the “number of Sapphire-positive cells activated” value ([3]; 500 mM KCl) is reported as 12 cells and the “response of T2R32-Sapphire positive taste cells to stimulus” value [3] is reported as “responded”.

In the case of `O=C(O)O` [KHCO3], the “chorda tympani responses to 500 mM KCl or 100 mM CaCl2 (PKD2L1-cell mediated high-salt responses)” value (CA4) is reported as “strong inhibition”.

In the case of `O=C(O)CC(O)(CC(=O)O)C(=O)O` [citric acid], the “response of T2R32-Sapphire positive taste cells to stimulus” value [3] is reported as “not”.
